Measurements from patent publication US4017606A, “Organic compounds and process” (The Upjohn Company, priority 1975, dated 1977).

Assays:
liver deaminase = assay: Deamination of cytosine arabinoside in rhesus monkey blood by liver deaminase; format: biochemical; conditions: one part of tetrahydrouridine to 820 parts of cytosine arabinoside
Excerpt: (§1) This is especially reflected in a drop in the blood level of cytosine arabinoside, usually concomitant with an increase in uracil arabinoside. This destruction of cytosine arabinoside is brought about by a deaminase enzyme present in the blood and tissues of the animal. […] For example, deamination of cytosine arabinoside in rhesus monkey blood by liver deaminase was inhibited about 90% by the addition of one part of 4-hydroxyl-1-β-D-ribofuranosyl-tetrahydro-2(1H)-pyrimidinone (tetrahydrouridine) to 820 parts of cytosine arabinoside.

[1] = Serum half life of cytosine arabinoside in beagle dogs with or without tetrahydrouridine; conditions: dog, in vivo
Excerpt: as §1

[2] = molecular target: deaminase enzymes (centrifuged 25 percent homogenate of normal human liver) (Homo sapiens, UniProt P32320); assay: Competitive efficacy (C.E.) test: inhibition of cytosine arabinoside deamination; conditions: 1.0 micromole tritiated Ca, pH 8.0, 37° C., 45 minutes
Sequence of deaminase enzymes (centrifuged 25 percent homogenate of normal human liver) (P32320 whole entry): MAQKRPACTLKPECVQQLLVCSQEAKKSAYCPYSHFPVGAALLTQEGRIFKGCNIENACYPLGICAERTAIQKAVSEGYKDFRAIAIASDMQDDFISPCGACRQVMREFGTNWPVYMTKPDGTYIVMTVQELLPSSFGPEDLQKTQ
Experimental: The inhibition of cytosine arabinoside deamination by a compound is conveniently expressed in terms of its competitive efficacy (C.E.). The competitive efficacy of a compound is determined as follows:
Enzyme reaction mixture are prepared in 12-ml. centrifuge tubes in an ice bath. […] This is the standard reaction mixture. […] The tubes are then assayed for radioactive uracil arabinoside as described below, and the percent conversion of tritiated Ca to tritiated uracil arabinosie is calculated. A standard curve of the percent conversion vs. log10 of the initial ratio of untritiated Ca to tritiated Ca is plotted. This is the standard curve for the C.E. test.
Reaction mixture for C.E. test.
To determine the C.E. of a compound, known amounts of the compound are added to the above standard reaction mixture and the percent conversion of tritiated Ca to tritiated uracil arabinoside is measured. […] From this ratio and the amount of test compound in the assay reaction mixture, the C.E. is calculated. […]
After 45 minute incubation of the enzyme reaction mixtures, further reaction is stopped by the addition of one-half volume of iced, 15 percent trichloroacetic acid. […] Suitable quantities (4 microliters) of clear supernatant solution are co-chromatographed with a mixture of 40 millimicromoles each of non-tritiated carrier Ca and uracil arabinoside on Whatman No. 40 paper. […]

myelogenous leukemia = conditions: adults; 1 to 5 mg./kg. weekly intravenously or subcutaneously as maintenance; cited from earlier work

**Q.** Which results are given for `O=C1NC(O)CCN1[C@@H]1O[C@H](CO)[C@@H](O)[C@H]1O` (single isomer, unassigned) [tetrahydrouridine, 4-hydroxy-1-β-D-ribofuranosyl-tetrahydro-2(1H)-pyrimidinone]?
**A.** inhibition of deamination of cytosine arabinoside (liver deaminase): about 90%; half life of cytosine arabinoside in the serum ([1]; iv): 2.27 to 3 h

**Q.** For `O=C1NCCCN1[C@@H]1O[C@H](CO)[C@@H](O)[C@H]1O` [E], which “Competitive Efficacy” value [2] is on record?
**A.** 200

**Q.** Which half-life ([1]; control dogs without tetrahydrouridine, 50 mg./kg. cytosine arabinoside intravenous) does the source give for `Nc1ccn([C@@H]2O[C@H](CO)[C@@H](O)[C@@H]2O)c(=O)n1` [cytosine arabinoside, 1-β-D-arabinofuranosylcytosine, reference compound] here?
**A.** 1.1 to 1.33 h

**Q.** And the “duration of remission of myelogenous leukemia (bone marrow response)” value (myelogenous leukemia)?
**A.** more than 203 days
